biological target: T1, chymase (Homo sapiens, UniProt P23946); assay: not given; conditions: confirmed in PCT/JP99/06738 (WO 00/32587); cited from earlier work
T1 sequence (P23946 22-247): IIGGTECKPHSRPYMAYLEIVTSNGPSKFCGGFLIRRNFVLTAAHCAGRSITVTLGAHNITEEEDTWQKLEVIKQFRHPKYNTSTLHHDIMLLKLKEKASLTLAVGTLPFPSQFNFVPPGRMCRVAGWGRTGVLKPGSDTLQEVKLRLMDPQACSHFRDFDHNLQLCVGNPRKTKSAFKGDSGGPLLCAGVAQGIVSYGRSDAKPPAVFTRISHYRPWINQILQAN

Row | Structure (SMILES) | chymase inhibitory activity (in words)
1 | Cn1c(=O)c(Cc2[nH]c3ccccc3c2CCO)c(O)c2ccccc21 [SF2809-III] | has a chymase inhibitory activity
2 | CC(=O)NCCc1c(C(c2ccc(O)cc2)c2c(O)c3ccccc3n(C)c2=O)[nH]c2ccccc12 (stereo not shown) [SF2809-II] | has a chymase inhibitory activity
3 | Cn1c(=O)c(C(c2ccc(O)cc2)c2[nH]c3ccccc3c2CCO)c(O)c2ccccc21 (stereo not shown) [SF2809-IV] | has a chymase inhibitory activity
4 | CC(=O)NCCc1c(Cc2c(O)c3ccccc3n(C)c2=O)[nH]c2ccccc12 [SF2809-I] | has a chymase inhibitory activity
5 | Cn1c(=O)c(C(c2ccccc2)c2[nH]c3ccccc3c2CCO)c(O)c2ccccc21 (stereo not shown) [SF2809-VI] | has a chymase inhibitory activity
6 | CC(=O)NCCc1c(C(c2ccccc2)c2c(O)c3ccccc3n(C)c2=O)[nH]c2ccccc12 (stereo not shown) [SF2809-V] | has a chymase inhibitory activity

biological target: T2, active-type human chymase (Homo sapiens, UniProt P23946); assay: Chymase inhibitory activity (Test Example 1; hydrolysis of succinyl-alanyl-histidyl-prolyl-phenylalanyl-p-nitroanilide, absorbance at 405 nm); assay type: biochemical; conditions: recombinant active-type human chymase, 0.5 mM p-nitroanilide substrate, Buffer A pH 8.0, room temperature, 5 minutes; read-out: Chymase inhibitory activity IC50 (molar concentration)
T2 construct: made in house
T2 sequence (P23946 22-247): T1 sequence (P23946 22-247)
Description: • (a) The preparation of the enzyme chymase was carried out as follows. That is, a recombinant pro-type human chymase to be used had been prepared in accordance with the method of Urata et al's report [“J. Biol. Chem.”, Vol.266, p.17173 (1991)]. Further, the chymase product as preliminarily purified was activated in accordance with the method of Murakami et al's report [“J. Biol. Chem.”, Vol.270, p.2218 (1991)]. The resulting activated chymase product was purified with heparin Sepharose to afford an active-type human chymase. • (b) To 50 μl of Buffer A (comprising 0.5-3.0M NaCl and 50 mM tris-HCl, pH 8.0) containing 1-5 ng of the active-type human chymase as obtained by the above-mentioned methods, was added 2 μl of a solution in […] which contained an indole derivative of this invention as the substance to be tested. Then, to the resultant mixture, there was added 50 μl of Buffer A containing 0.5 mM of succinyl-alanyl-histidyl-prolyl-phenylalanyl-p-nitroanilide (a product of Backem Co.) as the substrate. The resulting reaction mixture was incubated at room temperature for 5 minutes. The chymase inhibitory activity was assessed by measuring the changes in the absorbance of a light at 405 nm of the resulting reaction solution with the passage of time. The chymase inhibitory activity of the indole derivatives tested of this invention was evaluated in term of IC50 values (in molar concentration, M).
The indole derivatives of this invention as tested in this Example are the compounds of Compound No. 003, 021, 026, 027, 030, 076 and 078 shown in Table 1 above.

Row | IC50 | Structure (SMILES)
7 | 1.4 nM | COc1ccc(C(=O)OCCc2c(C(c3ccc(C(F)(F)F)cc3)c3c(O)c4ccccc4n(C)c3=O)[nH]c3ccccc23)cc1OC (stereo not shown) [Compound No. 021]
8 | 0.439 nM | Cn1c(=O)c(C(c2cccc(Br)c2)c2[nH]c3ccccc3c2CCNS(=O)(=O)c2ccc3ccccc3c2)c(O)c2ccccc21 (stereo not shown) [Compound No. 026]
9 | 5.11 nM | Cn1c(=O)c(C(c2ccc(OC(F)(F)F)cc2)c2[nH]c3ccccc3c2CCNS(=O)(=O)c2ccc3ccccc3c2)c(O)c2ccccc21 (stereo not shown) [Compound No. 027]
10 | 0.587 nM | Cn1c(=O)c(C(c2ccc(OC(F)(F)F)cc2)c2[nH]c3ccccc3c2CCOC(=O)c2ccccc2)c(O)c2ccccc21 (stereo not shown) [Compound No. 030]
11 | 0.893 nM | CC(=O)OCCc1c(C(c2cccc(Br)c2)c2c(O)c3ncsc3n(C)c2=O)[nH]c2ccccc12 (stereo not shown) [Compound No. 076]
12 | 1.86 nM | CC(=O)NCCc1c(C(c2ccccc2OC(C)=O)c2c(O)c3ccccc3n(C)c2=O)[nH]c2ccccc12 (stereo not shown) [Compound No. 078]
13 | 2.64 nM | Cn1c(=O)c(C(c2cccc(F)c2)c2[nH]c3ccccc3c2CCNC(=O)c2cc(C(F)(F)F)cc(C(F)(F)F)c2)c(O)c2ccccc21 (stereo not shown) [compound 003]

Reference: patent US6852734B2, “Indole derivatives exhibiting chymase-inhibitory activities and process for preparation thereof” (Meiji Seika Kaisha, Ltd., priority 2000, dated 2005)
